Results: patent publication US11185100B2 (priority 2014, dated 2021)
Structures can show the parent of a compound that is named as a salt. Where two headings read alike, the source gives them in different places.

Tests used:
[1] = target: T1, T1R1/T1R3 receptor (Felis catus, UniProt E3UMS2); assay: Agonist screening of transmembrane compounds on T1R1/T1R3 in HEK293 cells (Example 8); assay type: cell-based, cat; settings: for T1R1/T1R3 agonist: transmembrane compound tested at 0.01, 0.1 and 1 mM, HEK293 cells expressing T1R1/T1R3, calcium readout
Description: (§1) Agonist Screening Method: HEK293 cells that stably express T1R3 and inducibly express T1R1 were exposed to a transmembrane compound. Activation of the T1R1/T1R3 receptor was detected by a change in intracellular calcium levels using a calcium sensitive fluorescent dye and/or a luminescent reporter system. […] A FLIPR® Tetra or a FlexStation® 3 was used for data capture.
Each transmembrane compound was tested at concentrations of 0.01 mM, 0.1 mM, and 1 mM. […] To generate the dose response curves, the transmembrane compound was tested at concentrations of between 0.0001 mM and 1.0 mM in the presence of GMP and Ala.

[2] = target: T1, T1R1/T1R3 receptor; assay: PAM screening of transmembrane compounds with GMP and Ala on T1R1/T1R3 in HEK293 cells (Example 8); assay type: cell-based, cat; settings: for T1R1/T1R3 PAM: transmembrane compound at 0.01, 0.1 and 1 mM with GMP + Ala mixtures (T1-T4), PAM if response greater than sum of compound alone and GMP+Ala alone
Excerpt: as §1, with “PAM” for “Agonist”, “to” for “to a”, “compound alone or in combination with Ala and GMP to activate the umami receptor.” for “compound.”
Dose response curves were generated for each transmembrane compound at concentrations of 0 (buffer only), 0.01, 0.1 and 1 mM, wherein each of the three concentrations of transmembrane compound was tested in combination with 0.03 mM GMP+100 mM Ala (T1); 0.6 mM GMP+10 mM Ala (T2); 0.1 mM GMP+60 mM Ala (T3) and 0.3 mM GMP+60 mM Ala (T4). The T4 mixture was also tested in a 2-fold dilution series (the T4(X) Concentration). In these experiments, the first test concentration was 2× (2 times) the T4 concentration. The subsequent test concentrations were 2-fold dilutions from that (1×, 0.5× etc.). This dilution series was tested with or without the addition of the test compound at a constant 0.3 mM concentration.
Activation of the umami receptor was also determined in the presence of 1 mM GMP+100 mM Ala to generate a “maximum” umami receptor activation level.

[3] = target: T1, T1R1/T1R3 receptor; assay: Activation of T1R1/T1R3 receptor by transmembrane compounds and nucleotide derivatives, conducted as in Examples 1, 2 and 5 (Example 7); assay type: cell-based, cat; settings: for Activity: modulation of T1R1/T1R3
Excerpt: (§2) Methods: HEK293 cells that stably express T1R3 and inducibly express T1R1 were exposed to nucleotide derivatives alone to activate the umami receptor. Activation of the T1R1/T1R3 receptor was detected by a change in intracellular calcium levels using a calcium sensitive fluorescent dye. Cells that express T1R3 but not T1R1 were used as a control. A FLIPR® Tetra or a FlexStation® 3 was used for data capture.
as §2, with “alone or in combination with one or more amino acids and/or one or more nucleotides” for “alone”, “dye and/or a luminescent reporter system.” for “dye.”
as §2, with “transmembrane compounds” for “nucleotide derivatives”, “alone or in combination with one or more amino acids and/or one or more nucleotides” for “alone”
(§3) In each experiment, serial dilutions of up to 10 mM of the transmembrane compound were added to the T1R1/T1R3-expressing cells.

[4] = target: cat T1R1/T1R3 receptor (Felis catus, UniProt E3UMS2); assay: cell-based; assay type: cell-based; settings: for Max. resp. % of IMP: hek293 cells
Outline: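 Umami receptor activation in HEK293 cells stably expressing T1R3 with inducible T1R1, exposed to nucleotide derivatives alone or combined with amino acids and/or nucleotides. Intracellular calcium read with a calcium-sensitive fluorescent dye and/or luminescent reporter; cells expressing T1R3 without T1R1 served as control.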

[5] = target: T1, T1R1/T1R3 receptor; assay: Activation of T1R1/T1R3 receptor by transmembrane compounds alone or with alanine, IMP, GMP, phenylalanine; HEK293 cells, calcium fluorescence (Example 5); assay type: cell-based, cat; settings: read-out: EC50 (effect with 0.2 mM IMP); Table 20 controls; in the presence of 0.2 mM IMP
Excerpt: as §2, with “transmembrane compounds” for “nucleotide derivatives”, “alone or in combination with one or more amino acids and/or one or more nucleotides” for “alone”
as §3

COC(=O)C(NCc1ccccc1)c1ccccc1 (stereo not shown) [Methyl-2-benzylamino-2-phenylacetate]
agonist profile assessment (activation of T1R1/T1R3 by the compound alone) [1]: agonist
PAM profile assessment (activation of T1R1/T1R3 in the presence of GMP and Alanine) [2]: PAM activity

O=C(CN1C(=O)C(=O)N(Cc2ccccc2)C1=O)c1ccc2c(c1)OCCO2 [Formula 4, 1-benzyl-3-(2-(2,3-dihydrobenzo[b][1,4]dioxin-6-yl)-2-oxoethyl)imidazolidine-2,4,5-trione]
T1R1/T1R3 agonist [1]: No
T1R1/T1R3 PAM [2]: No

O=C(CN1C(=O)C(=O)N(Cc2ccccc2)C1=O)c1ccc(Cl)s1 [1-benzyl-3-(2-(5-chlorothiophen-2-yl)-2-oxoethyl)imidazolidine-2,4,5-trione]
PAM profile assessment (activation of T1R1/T1R3 in the presence of GMP and Alanine) [2]: PAM activity

COC(=O)[C@H](CC(C)C)NCc1ccccc1.Cl [Benzyl-L-leucine methyl ester hydrochloride]
agonist profile assessment (activation of T1R1/T1R3 by the compound alone) [1]: agonist
PAM profile assessment (activation of T1R1/T1R3 in the presence of GMP and Alanine) [2]: PAM activity

O=C(CN1C(=O)C(=O)N(CCc2cccs2)C1=O)c1cccc2ccccc12 [Formula 11, 1-(2-(naphthalen-1-yl)-2-oxoethyl)-3-(2-(thiophen-2-yl)ethyl)imidazolidine-2,4,5-trione]
T1R1/T1R3 agonist [1]: No
T1R1/T1R3 PAM [2]: No

COc1ccccc1C(=O)CN1C(=O)C(=O)N(Cc2cccs2)C1=O [Formula 10, 1-(2-(2-methoxyphenyl)-2-oxoethyl)-3-(thiophen-2-ylmethyl)imidazolidine-2,4,5-trione]
T1R1/T1R3 agonist [1]: No
T1R1/T1R3 PAM [2]: No

O=C(CN1C(=O)C(=O)N(Cc2ccccc2)C1=O)c1ccc(Br)cc1 [Formula 3, 1-benzyl-3-(2-(4-bromophenyl)-2-oxoethyl)imidazolidine-2,4,5-trione]
T1R1/T1R3 agonist [1]: No
T1R1/T1R3 PAM [2]: No

O=C1CC(=O)N(Cc2ccccc2)C(=O)N1Cc1ccccc1 [Formula 24, 1,3-dibenzylpyrimidine-2,4,6(1H,3H,5H)-trione]
T1R1/T1R3 agonist [1]: Yes
T1R1/T1R3 PAM [2]: No

Cl.N[C@@H](Cc1ccccc1)C(=O)OCc1ccccc1 [L-Phenylalanine benzyl ester hydrochloride]
agonist profile assessment (activation of T1R1/T1R3 by the compound alone) [1]: agonist
PAM profile assessment (activation of T1R1/T1R3 in the presence of GMP and Alanine) [2]: PAM activity

COC(=O)C(NCc1ccccc1)c1ccccc1 (stereo not shown) [Formula 19, Methyl-2-benzylamino-2-phenylacetate]
T1R1/T1R3 agonist [1]: Yes
T1R1/T1R3 PAM [2]: Yes

N[C@@H](Cc1ccc(O)cc1)C(=O)OCc1ccccc1 [Formula 21, L-Tyrosine benzyl ester]
T1R1/T1R3 agonist [1]: No
T1R1/T1R3 PAM [2]: No

N#Cc1cccc(NC(=O)CN2C(=O)C(=O)N(Cc3ccccc3)C2=O)c1 [Formula 9, 2-(3-benzyl-2,4,5-trioxoimidazolidin-1-yl)-N-(3-cyanophenyl)acetamide]
T1R1/T1R3 agonist [1]: No
T1R1/T1R3 PAM [2]: No

O=C1C(=O)N(Cc2ccccc2)C(=S)N1Cc1ccccc1 [Formula 13, 1,3-dibenzyl-2-thioxoimidazolidine-4,5-dione]
T1R1/T1R3 agonist [1]: No
T1R1/T1R3 PAM [2]: No

Cl.N[C@@H](Cc1ccccc1)C(=O)OCc1ccccc1 [Formula 20, L-Phenylalanine benzyl ester hydrochloride]
T1R1/T1R3 agonist [1]: Yes
T1R1/T1R3 PAM [2]: Yes

O=C(CN1C(=O)C(=O)N(Cc2ccccc2)C1=O)c1ccc2c(c1)CCC2 [Formula 2, 1-benzyl-3-(2-(2,3-dihydro-1H-inden-5-yl)-2-oxoethyl)imidazolidine-2,4,5-trione]
T1R1/T1R3 agonist [1]: No
T1R1/T1R3 PAM [2]: No

COC(=O)[C@H](Cc1ccccc1)NCc1ccccc1 [Formula 15, N-Benzyl-L-phenylalanine methyl ester hydrochloride]
T1R1/T1R3 agonist [1]: Yes
T1R1/T1R3 PAM [2]: Yes

O=C(O)[C@H](Cc1ccc(O)cc1)NCc1ccccc1 [Formula 22, N-Benzyl-L-Tyrosine]
T1R1/T1R3 agonist [1]: No
T1R1/T1R3 PAM [2]: No

COC(=O)[C@@H](Cc1ccccc1)NCc1ccccc1.Cl [N-Benzyl-D-Phenylalanine methyl ester hydrochloride]
agonist profile assessment (activation of T1R1/T1R3 by the compound alone) [1]: agonist
PAM profile assessment (activation of T1R1/T1R3 in the presence of GMP and Alanine) [2]: PAM activity

Cc1ccc(CNC(Cc2ccccc2)C(=O)O)cc1 (stereo not shown) [Formula 23, 2-((4-methylbenzyl)amino)-3-phenylpropanoic acid]
T1R1/T1R3 agonist [1]: No
T1R1/T1R3 PAM [2]: No

O=P(O)(O)OP(=O)(O)OP(=O)(O)OC[C@H]1O[C@@H](n2cnc3c(Cl)ncnc32)[C@H](O)[C@@H]1O [6-Chloropurine riboside-5′-O-triphosphate]
Max resp % of IMP +Alanine (20 mM) ([3]; +Alanine (20 mM)): 50.4 % of IMP
Max resp ΔF/F +Alanine (20 mM) ([3]; +Alanine (20 mM)): 0.3450 ΔF/F
Thres +Alanine (20 mM) ([3]; +Alanine (20 mM)): 0.01 mM
Max resp % of Ala +IMP (0.2 mM) [3]: 30.2 % of Ala
Max resp ΔF/F +IMP (0.2 mM) [3]: 0.2350 ΔF/F
Thres +IMP (0.2 mM) [3]: 0.003 mM
Activity [3]: active
Max resp. (ΔF/F) [4]: 0.345 ΔF/F
Threshold [4]: 0.01 mM
Max. resp. % of IMP [4]: 50.4 % of IMP

COc1ccc(C(=O)CN2C(=O)C(=O)N(Cc3ccccc3)C2=O)c(OC)c1 [Formula 5, 1-benzyl-3-(2-(2,4-dimethoxyphenyl)-2-oxoethyl)imidazolidine-2,4,5-trione]
T1R1/T1R3 agonist [1]: No
T1R1/T1R3 PAM [2]: No

O=C1CC(=O)N(Cc2ccccc2)C(=O)N1Cc1ccccc1 [1,3-dibenzylpyrimidine-2,4,6(1H,3H,5H)-trione]
agonist profile assessment (activation of T1R1/T1R3 by the compound alone) [1]: agonist activity
Max resp ΔF/F +Alanine (20 mM) [3]: 0.2925 ΔF/F
Thres +Alanine (20 mM) [3]: 0.1 mM
Max resp % of Ala +IMP (0.2 mM) [3]: 35.7 % of Ala
Max resp ΔF/F +IMP (0.2 mM) [3]: 0.2775 ΔF/F
Thres +IMP (0.2 mM) [3]: 0.1 mM
Max resp % of IMP +Alanine (20 mM) ([3]; hek293 cells): 42.7 % of IMP
Activity [3]: active

O=C(CN1C(=O)C(=O)N(Cc2ccccc2)C1=O)c1ccc2c(c1)OCCCO2 [1-benzyl-3-(2-(3,4-dihydro-2H-benzo[b][1,4]dioxepin-7-yl)-2-oxoethyl)imidazolidine-2,4,5-trione]
PAM profile assessment (activation of T1R1/T1R3 in the presence of GMP and Alanine) [2]: PAM activity

C[C@H](N)C(=O)O [L-Alanine, reference compound]
Max resp % of Ala +IMP (0.2 mM) [3]: 100.0 % of Ala
Max resp ΔF/F +IMP (0.2 mM) [3]: 0.7775 ΔF/F
Thres +IMP (0.2 mM) [3]: 3.0 mM
EC50 [5]: 13.6 ± 4.3 mM
EC50 ([4]; read-out: EC50): 13.6 ± 4.3 mM

Nc1nc2c(ncn2[C@@H]2O[C@H](COP(=O)(O)OP(=O)(O)O)[C@@H](O)[C@H]2O)c(=S)[nH]1 [6-Thioguanosine-5′-O-diphosphate]
Max resp ΔF/F +Alanine (20 mM) [3]: 1.0470 ΔF/F
Thres +Alanine (20 mM) [3]: 0.03 mM
Max resp % of Ala +IMP (0.2 mM) [3]: 9.3 % of Ala
Max resp ΔF/F +IMP (0.2 mM) [3]: 0.0720 ΔF/F
Max resp % of IMP +Alanine (20 mM) ([3]; hek293 cells): 152.8 % of IMP
Activity [3]: active
Max resp. (ΔF/F) [4]: 1.047 ΔF/F
Threshold [4]: 0.03 mM
Max. resp. % of IMP [4]: 152.8 % of IMP
EC50 ([4]; in the presence of 20 mM alanine, read-out: EC50- with Ala): 0.18 ± 0.02 mM
